Test results from patent publication US7251525B2, “Treatment of arrhythmias via inhibition of a multifunctional calcium/calmodulin-dependent protein kinase” (The Board of Trustees of the Leland Stanford Jr. University, priority 1997, dated 2007).

What was measured:
CaM kinase [1] = biological target: CaM kinase (Oryctolagus cuniculus, UniProt O77708); assay: Ca2+-independent CaM kinase activity in LV tissue from isolated rabbit hearts; conditions: clofilium 7.5 μmole/l; KN-93 pretreatment 0.5 μmol/l
Experimental: FIG. 4. Percent calcium-independent CaM kinase activity in isolated rabbit hearts. Maximal (i.e. Ca^2+/calmodulin-dependent) and Ca^2+-independent CaM kinase activities were assayed from left ventricular (LV) tissue homogenates as described in Example 5, Experimental Methods. All hearts were initially isolated under control conditions. A stabilization period of ≧10 min was used for each isolated heart to ensure the absence of EADs, as indicated by monophasic action potentials (MAPs) recorded by a catheter positioned over the LV epicardium. […]
Left ventricular homogenate was prepared as follows: after removal of the heart, it was placed in nominally Ca^2+ free ice-cold HEPES-buffered Tyrode's solution. […] Protein concentration was measured by the method of Bradford, using BSA as the standard.
Assay of CaM kinase activity was performed essentially as described by Waldmann et al. with a few modifications. […] Calcium/calmodulin-dependent phosphorylation of the autocamtide 3 substrate was then quantitated as described. Calcium/calmodulin-independent CaM kinase activity was quantitated as described above, but Ca^2+ was omitted from the assay solution. […]

protein kinase A (PKA) = conditions: cited from earlier work
protein kinase C (PKC) = conditions: cited from earlier work
CaM kinase [2] = conditions: read-out: reported Ki, competitive inhibition of calmodulin binding to CaM kinase; cited from earlier work
isolated rabbit hearts = assay: Clofilium-induced early afterdepolarizations (EADs) in isolated perfused rabbit hearts
From the text: FIG. 1. […] Data tracings show (from top to bottom) monophasic action potentials (MAP) and left ventricular (LV) pressure. The horizontal lines to the left of the LV pressure tracings (top to bottom) indicate 100 mm Hg and 0 mm Hg levels and 850 ms for panels A and B. All experiments with isolated hearts consisted of 3 periods. A fourth period (experimental period 4) was only added in hearts with EADs. Experimental periods are labeled 1-4 (top of page for both panels A and B). Experimental period 1 measurements represent control and follow >10 min of stabilization. […] Period 3 measurements follow addition of clofilium (7.5 μmole/l) and are taken at EAD initiation or from the longest action potential duration recorded over 30 min. Multiple EADs are seen as 2 oscillations during repolarization on the MAP tracings in experimental period 3. Secondary elevations in LV pressure coinciding with EADs are also seen in the LV pressure tracing in experimental period 3. Experimental period 4 measurements follow EAD termination by addition of nifedipine (10 μmole/l) (shown above) or Cd^2+ (200-500 μmole/l) (data not shown). The horizontal bars indicate the experimental conditions for both panels A and B. (B) Experimental design for isolated rabbit hearts treated with CaM kinase inhibitor KN-93. Arrangement of data tracings is the same as in FIG. 1A (above). Experimental periods are also the same as in FIG. 1A (above) except the active CaM kinase inhibitor KN-93 (0.5 μmole/l) was added 10 min prior to period 2 measurements. […] (C) Continuous record of EAD termination by nifedipine (10 μM) in a heart paced at a cycle length of 1500 ms. Data tracings show MAP with single EADs (top) and LV pressure (bottom). The horizontal lines to the left of the LV pressure tracings indicate 50 mm Hg and 0 mm Hg pressure levels (top to bottom). EAD termination occurs prior to the first discernible decrease (i.e. >10% below baseline) in LV pressure. The vertical arrow marks the first beat of EAD termination.
New Zealand White rabbits of either gender (2.7-3.2 kg) were treated with a heparin bolus (150 U/kg IV) and killed by pentobarbital (50 mg/kg IV) overdose. Hearts were rapidly excised and placed in ice-cold Tyrode's solution for dissection of extracardiac tissue. (Tyrode's solution was composed of (mmol/l) NaCl (130.0), NaHCO3 (20.0), glucose (5.6), KCl (3.0), CaCl2 (2.0), NaH2PO4 (1.8), MgCl24H2O(0.7).) The aorta was cannulated, and perfused retrograde with Tyrode's solution. The perfusate (200 ml) was recirculated through a warming bath and filling pressure was adjusted to 20 cm of H2O. Recirculation time was ˜1 min, based on the time to decrease in left ventricular (LV) pressure following addition of ICa blockers to the recirculating perfusate. Temperature was monitored using a thermistor probe positioned in the right ventricle (RV) and maintained at 33±1° C. by a closed loop feed back system. The perfusate was vigorously bubbled with 95% O2, 5% CO2 and pH was monitored throughout the experiments and adjusted to 7.4 with LN NaOH or HCl, as appropriate. Both atria were removed and drains were placed in the RV and LV apices. An electrocardiogram (ecg) lead was sutured to the LV apex and the proximal pulmonary artery. Epicardial pacing wires were inserted into the RV free wall. Bradycardia was produced by crushing the AV node with a forceps. Epicardial pacing maintained a minimum cycle length of 1500 ms (heart rate of 40 beats/min). Pacing output was adjusted to twice diastolic threshold. In most experiments LV pressure was continuously monitored with a solid state transducer (Camino Laboratories) placed in a saline filled latex balloon. The balloon was secured with a purse string suture around the left atrial remnant and pressure was adjusted to maximize the LV developed pressure (LVDP) keeping the LV end diastolic pressure <10 mmHg. […]

[3] = biological target: T1, L-type Ca2+ current (ICa) (Oryctolagus cuniculus, UniProt P15381); assay: Whole cell voltage clamp of L-type Ca2+ current in single ventricular myocytes; assay type: cell-based, rabbit
T1 construct: endogenous in cells; host or cells: freshly isolated New Zealand White rabbit ventricular myocytes

[4] = tested on: L-type calcium window current; assay: L-type calcium window current with an EAD-containing action potential voltage clamp wave form; assay type: cell-based, rabbit; conditions: dialysis with peptide; data not shown
[5] = tested on: isolated rabbit ventricular myocytes; assay: EAD induction in isolated rabbit ventricular myocytes in current clamp with low extracellular potassium; assay type: cell-based; conditions: cells dialyzed with peptide; for EADs induced (cells with EADs/cells): 1.0 mM extracellular potassium
Experimental: Action potentials were induced in isolated rabbit ventricular myocytes studied in current clamp with low (1.0 mM) extracellular potassium to favor EAD induction.
Action potential recording was performed in the following bath solution (mmol/L): NaCl 140.0, Glucose 10.0, HEPES 5.0, KCl 5.4, CaCl2 2.5, MgCl2 1.0; pH was adjusted to 7.4 with 10 N NaOH. The intracellular pipette solution for action potential recording contained (mmol/L): K aspartate 120.0, HEPES 10.0, EGTA 10.0, Na2ATP 5.0, MgCl2 4.0, CaCl2 3.0; pH was adjusted to 7.2 with 1N KOH. Unless otherwise noted, all chemicals were from Sigma.
Cells were stimulated at 0.1 Hz in whole cell configuration in current clamp mode with 0.1 to 1.0 nA pulses of depolarizing current (1.25×threshold) for 2-3 ms at room temperature (20°-23° C.). Action potentials were low pass filtered at 2 KHz and sampled at 2.5 KHz with a 12-bit analog to digital converter (Digidata 1200 B, Axon Instruments). A long action potential waveform was digitized and stored for application as a voltage command using pClamp 6.03.

isolated heart cells = assay: Pacing-induced inward current (DAD-linked) in isolated heart cells, action potential voltage clamp; assay type: cell-based, rabbit; conditions: 0.5 Hz; for cells that developed inward currents: peptide 20 μmole/l dialyzed, 32° C.
Experimental: FIG. 7. CaM kinase inhibition suppresses pacing induced inward current. Isolated heart cells were paced (0.5 Hz, T=32° C.) using a prolonged action potential voltage clamp command wave form. (A) A prolonged action potential was digitized and used as a voltage clamp command waveform for current tracings below. Command membrane potential is on the ordinate and time (for panels A-C) is on the abscissa (B) Inward currents developed after completion of the command wave form in 5/6 cells dialyzed with a control peptide (SEQ ID NO: 2, 20 μmole/l) devoid of CaM kinase inhibitory activity. Cell membrane currents are referenced on the ordinate for both panels B and C.
Isolated heart cells (Experimental Methods, Example 6) were stimulated (0.5 Hz) in voltage clamp using a prolonged action potential wave form (FIG. 7A). Rapid pacing favors intracellular calcium overload. Inward currents that develop in response to rapid pacing are a marker for intracellular calcium overload and they are the basis for arrhythmogenic delayed afterdepolarizations (DADs).
Isolated cells were studied with the action potential command wave form using voltage clamp methodology (Experimental Methods, Example 6). Cells were stimulated at 0.5 Hz and 32° C. (heated stage from Warner Instruments) for up to 100 beats. Recording solutions were identical to those for action potential recording except that the calcium buffer EGTA was omitted from the intracellular solution to favor intracellular calcium overload. The presence or absence of the post-repolarization inward current was noted.

[6] = pretreatment 0.5 μmol/l, clofilium 7.5 μM

T1 sequence (P15381 whole entry, other chains not shown): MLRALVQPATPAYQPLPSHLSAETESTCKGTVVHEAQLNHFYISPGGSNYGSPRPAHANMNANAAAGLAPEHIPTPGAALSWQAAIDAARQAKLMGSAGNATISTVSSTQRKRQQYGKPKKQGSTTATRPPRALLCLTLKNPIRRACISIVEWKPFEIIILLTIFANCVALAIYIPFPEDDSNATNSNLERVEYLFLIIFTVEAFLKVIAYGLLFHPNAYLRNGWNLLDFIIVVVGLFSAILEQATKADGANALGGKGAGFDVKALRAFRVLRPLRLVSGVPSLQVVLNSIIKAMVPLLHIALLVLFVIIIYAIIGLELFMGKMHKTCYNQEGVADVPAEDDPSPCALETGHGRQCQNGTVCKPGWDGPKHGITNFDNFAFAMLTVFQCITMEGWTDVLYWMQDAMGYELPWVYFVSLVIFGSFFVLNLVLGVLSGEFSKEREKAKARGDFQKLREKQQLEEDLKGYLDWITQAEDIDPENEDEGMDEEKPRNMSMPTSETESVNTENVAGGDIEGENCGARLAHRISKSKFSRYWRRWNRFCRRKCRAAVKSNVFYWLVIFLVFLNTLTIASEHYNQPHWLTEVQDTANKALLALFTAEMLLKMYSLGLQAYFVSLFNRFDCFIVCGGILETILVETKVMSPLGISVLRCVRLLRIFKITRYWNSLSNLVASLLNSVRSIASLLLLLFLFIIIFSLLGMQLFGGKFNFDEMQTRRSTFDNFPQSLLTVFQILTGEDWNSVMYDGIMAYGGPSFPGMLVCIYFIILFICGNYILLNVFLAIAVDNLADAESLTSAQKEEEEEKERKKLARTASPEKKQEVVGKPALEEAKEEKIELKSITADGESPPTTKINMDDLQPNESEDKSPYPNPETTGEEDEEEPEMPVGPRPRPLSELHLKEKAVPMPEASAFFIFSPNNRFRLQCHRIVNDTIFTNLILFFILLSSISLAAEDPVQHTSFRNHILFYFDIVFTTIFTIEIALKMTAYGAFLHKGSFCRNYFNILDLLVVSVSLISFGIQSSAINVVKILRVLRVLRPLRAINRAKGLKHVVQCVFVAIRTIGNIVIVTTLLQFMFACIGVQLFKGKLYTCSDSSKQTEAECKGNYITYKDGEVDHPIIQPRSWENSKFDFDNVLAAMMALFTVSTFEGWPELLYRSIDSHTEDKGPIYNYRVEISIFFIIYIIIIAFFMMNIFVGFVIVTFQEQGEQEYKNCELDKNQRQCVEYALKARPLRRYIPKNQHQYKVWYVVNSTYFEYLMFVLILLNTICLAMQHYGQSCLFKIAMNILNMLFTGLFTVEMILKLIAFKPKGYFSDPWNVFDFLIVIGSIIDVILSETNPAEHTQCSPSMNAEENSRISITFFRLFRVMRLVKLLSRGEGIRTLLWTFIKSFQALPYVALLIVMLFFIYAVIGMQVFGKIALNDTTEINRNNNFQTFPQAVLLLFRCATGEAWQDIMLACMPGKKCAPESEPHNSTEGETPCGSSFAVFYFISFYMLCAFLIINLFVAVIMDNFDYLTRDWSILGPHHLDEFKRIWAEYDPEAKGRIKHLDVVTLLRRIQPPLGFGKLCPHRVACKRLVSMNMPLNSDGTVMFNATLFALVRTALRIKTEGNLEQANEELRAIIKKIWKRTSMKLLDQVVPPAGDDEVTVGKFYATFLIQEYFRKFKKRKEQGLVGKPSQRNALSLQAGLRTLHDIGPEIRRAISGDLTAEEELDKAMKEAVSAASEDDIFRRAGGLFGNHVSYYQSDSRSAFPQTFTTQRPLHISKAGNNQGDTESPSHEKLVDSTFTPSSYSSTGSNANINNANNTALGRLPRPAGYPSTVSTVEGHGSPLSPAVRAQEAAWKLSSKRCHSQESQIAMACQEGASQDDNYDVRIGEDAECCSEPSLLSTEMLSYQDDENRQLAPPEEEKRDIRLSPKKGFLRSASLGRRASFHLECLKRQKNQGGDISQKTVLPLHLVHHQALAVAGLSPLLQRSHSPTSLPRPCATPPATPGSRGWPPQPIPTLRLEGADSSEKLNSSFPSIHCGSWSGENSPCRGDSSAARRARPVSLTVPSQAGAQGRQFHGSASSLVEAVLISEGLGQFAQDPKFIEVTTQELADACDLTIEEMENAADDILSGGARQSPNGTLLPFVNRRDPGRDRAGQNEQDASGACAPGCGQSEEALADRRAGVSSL
T1 sequence (P13806 27-960 partner limits assumed, other chains not shown): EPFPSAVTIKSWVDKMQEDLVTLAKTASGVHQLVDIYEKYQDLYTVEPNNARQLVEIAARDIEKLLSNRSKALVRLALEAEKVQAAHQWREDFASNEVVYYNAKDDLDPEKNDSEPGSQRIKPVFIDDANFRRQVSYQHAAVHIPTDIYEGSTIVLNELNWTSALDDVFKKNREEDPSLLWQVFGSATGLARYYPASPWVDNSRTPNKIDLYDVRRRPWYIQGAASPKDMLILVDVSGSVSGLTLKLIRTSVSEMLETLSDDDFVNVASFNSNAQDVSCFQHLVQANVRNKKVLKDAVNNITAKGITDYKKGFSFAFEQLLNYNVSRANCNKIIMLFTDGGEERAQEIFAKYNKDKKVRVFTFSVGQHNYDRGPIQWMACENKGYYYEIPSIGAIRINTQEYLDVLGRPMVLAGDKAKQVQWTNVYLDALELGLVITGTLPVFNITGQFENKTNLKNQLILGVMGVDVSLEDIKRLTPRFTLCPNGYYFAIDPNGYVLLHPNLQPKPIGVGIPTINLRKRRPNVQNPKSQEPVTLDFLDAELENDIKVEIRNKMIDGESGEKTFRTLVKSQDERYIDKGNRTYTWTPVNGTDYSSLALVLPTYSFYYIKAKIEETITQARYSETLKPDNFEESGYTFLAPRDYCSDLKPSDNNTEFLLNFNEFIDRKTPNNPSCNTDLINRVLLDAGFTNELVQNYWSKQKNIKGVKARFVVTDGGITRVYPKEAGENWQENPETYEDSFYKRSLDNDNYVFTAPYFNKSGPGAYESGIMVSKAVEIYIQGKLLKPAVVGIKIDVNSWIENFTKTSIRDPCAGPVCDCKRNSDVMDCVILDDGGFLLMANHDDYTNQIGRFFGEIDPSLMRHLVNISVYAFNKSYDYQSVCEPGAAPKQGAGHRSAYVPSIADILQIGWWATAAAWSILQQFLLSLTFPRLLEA
T1 sequence (P13806 961-1106 partner limits assumed, other chains not shown): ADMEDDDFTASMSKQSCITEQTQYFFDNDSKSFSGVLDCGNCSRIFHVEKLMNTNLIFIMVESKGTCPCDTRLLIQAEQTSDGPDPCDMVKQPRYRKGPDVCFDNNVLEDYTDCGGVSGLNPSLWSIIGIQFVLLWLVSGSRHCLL
CaM kinase (Oryctolagus cuniculus, UniProt O77708), sequence (O77708 2-533): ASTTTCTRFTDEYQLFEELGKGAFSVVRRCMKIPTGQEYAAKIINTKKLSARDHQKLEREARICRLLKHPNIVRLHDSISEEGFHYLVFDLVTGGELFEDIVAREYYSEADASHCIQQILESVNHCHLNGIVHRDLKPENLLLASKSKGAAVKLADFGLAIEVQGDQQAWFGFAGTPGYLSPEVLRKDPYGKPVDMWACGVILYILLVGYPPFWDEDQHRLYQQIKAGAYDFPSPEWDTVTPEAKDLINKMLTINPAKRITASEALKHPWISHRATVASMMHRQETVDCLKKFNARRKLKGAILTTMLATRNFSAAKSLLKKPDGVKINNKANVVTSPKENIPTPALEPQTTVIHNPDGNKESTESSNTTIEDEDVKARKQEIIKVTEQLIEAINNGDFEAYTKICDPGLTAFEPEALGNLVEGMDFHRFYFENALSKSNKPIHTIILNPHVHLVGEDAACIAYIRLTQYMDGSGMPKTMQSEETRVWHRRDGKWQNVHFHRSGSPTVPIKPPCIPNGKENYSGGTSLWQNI

COc1ccc(S(=O)(=O)N(CCO)c2ccccc2CN(C)CC=Cc2ccc(Cl)cc2)cc1 [KN-93, 2-[N-(2-hydroxyethyl)-N-(4-methoxy-benzenesulfonyl)]-amino-N-(4-chlorocinnamyl)-N-methylbenzylamine]
Ca2+-independent CaM kinase activity compared to control (CaM kinase [1]): No significant increase
effects on protein kinase A (PKA) (protein kinase A (PKA)): neither KN-93 nor KN-92 have appreciable effects
effects on protein kinase C (PKC) (protein kinase C (PKC)): neither KN-93 nor KN-92 have appreciable effects
Ki (CaM kinase [2]): 0.37 µM
MAP duration prolongation by clofilium (isolated rabbit hearts; pretreatment 0.5 μmol/l): without reducing MAP duration prolongation
EADs in response to clofilium (hearts with EADs/hearts) (isolated rabbit hearts; [6]): 4/10
multiple EADs (hearts with multiple EADs/hearts) (isolated rabbit hearts; [6]): 1/10
left ventricular developed pressure (LVDP) following clofilium (isolated rabbit hearts; pretreatment 0.5 μmol/l, clofilium 7.5 μmole/l): completely prevented the increase in LVDP
apparent voltage dependence of ICa activation [3]: Neither KN-92 or KN-93 shifted
steady state inhibition of peak ICa ([3]; 0.5 μmol/l external application, cells dialyzed with BAPTA): 36.2±4.3%
peak steady state ICa inhibition relative to KN-92 ([3]; 1.0 μmol/l): more effective ICa inhibitor

CCCCCCC[N+](CC)(CC)CCCCc1ccc(Cl)cc1 [clofilium]
Ca2+-independent CaM kinase activity compared to control (CaM kinase [1]): increased significantly
EAD induction by clofilium in hearts without any pretreatment (isolated rabbit hearts; clofilium 7.5 μM, no pretreatment): 8/8

KKALHAQERVDCL [SEQ ID NO: 2]
effect on L-type calcium window current [4]: no significant effect
kind of EADs seen [5]: complex and repetitive
EADs induced (cells with EADs/cells) [5]: 11/15
cells that developed inward currents (isolated heart cells): 5/6

KKALHRQEAVDCL [SEQ ID NO: 1]
effect on L-type calcium window current [4]: an increase in the current was prevented
IC50 (protein kinase A (PKA)): ≥ 500 µM
kind of EADs seen [5]: only single EADs
EADs induced (cells with EADs/cells) [5]: 4/15
IC50 (protein kinase C (PKC)): ≥ 500 µM
cells that developed inward currents (isolated heart cells): 0/5

Ryanodine
cells in which development of pacing induced inward currents was prevented (isolated heart cells; 10 μmole/l): 2/2
